Measured values published in patent publication US8574563B2 (Bristol-Myers Squibb Company, priority 2006, dated 2013).
pEC50: −log10 of the molar value.

System: HCV 1b-377-neo replicon cells
Assay: HCV replicon assay, HCV 1b-377-neo replicon cells (1b FRET)
Format: cell-based, Hepatitis C virus genotype 1b
Settings: Hepatitis C virus, HCV 1b-377-neo replicon cells; HCV 1b genotype; read-out: EC50 range against HCV 1b (Table 2, Range)
How it was run: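 FRET-based replicon assay in HCV 1b-377-neo cells, including a comparison line carrying the NS5A Y2065H mutation that confers resistance to a reference compound.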

SMILES | pEC50
Cc1nc([C@@H]2CCCN2C(=O)[C@@H](c2ccccc2)N2CCCCC2)[nH]c1-c1ccc(-c2ccc(-c3nc([C@@H]4CCCN4C(=O)[C@@H](c4ccccc4)N4CCCCC4)[nH]c3C)cc2)cc1 [Example E5i, 1,1′-(4,4′-biphenyldiylbis((4-methyl-1H-imidazole-5,2-diyl)(2S)-2,1-pyrrolidinediyl((1R)-2-oxo-1-phenyl-2,1-ethanediyl)))dipiperidine] | 9.00 to 12.00
COC(=O)N[C@@H](C(=O)N1CCC[C@H]1c1nc(-c2ccc(-c3ccc(-c4[nH]c([C@@H]5CCCN5C(=O)[C@H](NC(=O)OC)c5ccccc5)nc4C)cc3)cc2)c(C)[nH]1)c1ccccc1 [Example E5j, dimethyl (4,4′-biphenyldiylbis((4-methyl-1H-imidazole-5,2-diyl)(2S)-2,1-pyrrolidinediyl((1R)-2-oxo-1-phenyl-2,1-ethanediyl)))biscarbamate] | 9.00 to 12.00
COC(=O)N[C@@H](C)C(=O)N1CCC[C@H]1c1nc(-c2ccc(-c3ccc(-c4[nH]c([C@@H]5CCCN5C(=O)[C@H](C)NC(=O)OC)nc4C)cc3)cc2)c(C)[nH]1 [Example E5k, methyl ((1S)-2-((2S)-2-(4-(4′-(2-((2S)-1-(N-(methoxycarbonyl)-L-alanyl)-2-pyrrolidinyl)-5-methyl-1H-imidazol-4-yl)-4-biphenylyl)-5-methyl-1H-imidazol-2-yl)-1-pyrrolidinyl)-1-methyl-2-oxoethyl)carbamate] | 9.00 to 12.00
COC(=O)N[C@H](C(=O)N1CCC[C@H]1c1nc(-c2ccc(-c3ccc(-c4[nH]c([C@@H]5CCCN5C(=O)[C@@H](NC(=O)OC)C(C)C)nc4C)cc3)cc2)c(C)[nH]1)C(C)C [Example E5l, methyl ((1S)-1-(((2S)-2-(4-(4′-(2-((2S)-1-((2S)-2-((methoxycarbonyl)amino)-3-methylbutanoyl)-2-pyrrolidinyl)-4-methyl-1H-imidazol-5-yl)-4-biphenylyl)-5-methyl-1H-imidazol-2-yl)-1-pyrrolidinyl)carbonyl)-2-methylpropyl)carbamate] | 9.00 to 12.00
COC(=O)N[C@@H](C(=O)N1CCC[C@@H]1c1ncc(-c2ccc(-c3ccc(-c4cnc([C@@H]5CC[C@H](c6ccccc6)N5C(=O)[C@H](NC(=O)OC)c5ccccc5)[nH]4)cc3)cc2)[nH]1)c1ccccc1 [Example F6, methyl ((1R)-2-((2R)-2-(5-(4′-(2-((2S,5R)-1-((2R)-2-((methoxycarbonyl)amino)-2-phenylacetyl)-5-phenyl-2-pyrrolidinyl)-1H-imidazol-5-yl)-4-biphenylyl)-1H-imidazol-2-yl)-1-pyrrolidinyl)-2-oxo-1-phenylethyl)carbamate] | 9.00 to 12.00
CCN[C@@H](C(=O)N1CCC[C@H]1c1nc(-c2ccc(-c3ccc(-c4cnc([C@@H]5CCCN5C(=O)[C@H](NCC)c5ccccc5)[nH]4)cc3)cc2)c[nH]1)c1ccccc1 [Example F14, (1R)-N-ethyl-2-((2S)-2-(4-(4′-(2-((2S)-1-((2R)-2-(ethylamino)-2-phenylacetyl)-2-pyrrolidinyl)-1H-imidazol-5-yl)-4-biphenylyl)-1H-imidazol-2-yl)-1-pyrrolidinyl)-2-oxo-1-phenylethanamine] | 9.00 to 12.00
CN[C@@H](C(=O)N1CCC[C@H]1c1nc(-c2ccc(-c3ccc(-c4cnc([C@@H]5CCCN5C(=O)[C@H](NC)c5ccccc5)[nH]4)cc3)cc2)c[nH]1)c1ccccc1 [Example F15, (1R)-N-methyl-2-((2S)-2-(4-(4′-(2-((2S)-1-((2R)-2-(methylamino)-2-phenylacetyl)-2-pyrrolidinyl)-1H-imidazol-5-yl)-4-biphenylyl)-1H-imidazol-2-yl)-1-pyrrolidinyl)-2-oxo-1-phenylethanamine] | 9.00 to 12.00
CCCN[C@@H](C(=O)N1CCC[C@H]1c1nc(-c2ccc(-c3ccc(-c4cnc([C@@H]5CCCN5C(=O)[C@H](NCCC)c5ccccc5)[nH]4)cc3)cc2)c[nH]1)c1ccccc1 [Example F16, N-((1R)-2-oxo-1-phenyl-2-((2S)-2-(4-(4′-(2-((2S)-1-((2R)-2-phenyl-2-(propylamino)acetyl)-2-pyrrolidinyl)-1H-imidazol-5-yl)-4-biphenylyl)-1H-imidazol-2-yl)-1-pyrrolidinyl)ethyl)-1-propanamine] | 9.00 to 12.00
CCCCN[C@@H](C(=O)N1CCC[C@H]1c1nc(-c2ccc(-c3ccc(-c4cnc([C@@H]5CCCN5C(=O)[C@H](NCCCC)c5ccccc5)[nH]4)cc3)cc2)c[nH]1)c1ccccc1 [Example F17, N-((1R)-2-((2S)-2-(4-(4′-(2-((2S)-1-((2R)-2-(butylamino)-2-phenylacetyl)-2-pyrrolidinyl)-1H-imidazol-5-yl)-4-biphenylyl)-1H-imidazol-2-yl)-1-pyrrolidinyl)-2-oxo-1-phenylethyl)-1-butanamine] | 9.00 to 12.00
CCCOC(=O)N[C@@H](C)C(=O)N1CCC[C@H]1c1nc(-c2ccc(-c3ccc(-c4cnc([C@@H]5CCCN5C(=O)[C@H](C)NC(=O)OCCC)[nH]4)cc3)cc2)c[nH]1 [Example F20, propyl ((1S)-1-methyl-2-oxo-2-((2S)-2-(4-(4′-(2-((2S)-1-(N-(propoxycarbonyl)-L-alanyl)-2-pyrrolidinyl)-1H-imidazol-5-yl)-4-biphenylyl)-1H-imidazol-2-yl)-1-pyrrolidinyl)ethyl)carbamate] | 6.00 to 7.00
CCCCOC(=O)N[C@@H](C)C(=O)N1CCC[C@H]1c1nc(-c2ccc(-c3ccc(-c4cnc([C@@H]5CCCN5C(=O)[C@H](C)NC(=O)OCCCC)[nH]4)cc3)cc2)c[nH]1 [Example F21, butyl ((1S)-2-((2S)-2-(4-(4′-(2-((2S)-1-(N-(butoxycarbonyl)-L-alanyl)-2-pyrrolidinyl)-1H-imidazol-5-yl)-4-biphenylyl)-1H-imidazol-2-yl)-1-pyrrolidinyl)-1-methyl-2-oxoethyl)carbamate] | 6.00 to 7.00
CC(C)[C@H](O)C(=O)N[C@@H](C)C(=O)N1CCC[C@H]1c1nc(-c2ccc(-c3ccc(-c4cnc([C@@H]5CCCN5C(=O)[C@H](C)NC(=O)[C@@H](O)C(C)C)[nH]4)cc3)cc2)c[nH]1 [Example F22, (2S)-2-hydroxy-N-((1S)-2-((2S)-2-(5-(4′-(2-((2S)-1-(N-((2S)-2-hydroxy-3-methylbutanoyl)-L-alanyl)-2-pyrrolidinyl)-1H-imidazol-4-yl)-4-biphenylyl)-1H-imidazol-2-yl)-1-pyrrolidinyl)-1-methyl-2-oxoethyl)-3-methylbutanamide] | 6.00 to 7.00
CCOC(=O)N[C@H](C(=O)N1CCC[C@H]1c1nc(-c2ccc(-c3ccc(-c4c[nH]c([C@@H]5CCCN5C(=O)[C@@H](NC(=O)OCC)C(C)C)n4)cc3)cc2)c[nH]1)C(C)C [Example F25, ethyl ((1S)-1-(((2S)-2-(4-(4′-(2-((2S)-1-((2S)-2-((ethoxycarbonyl)amino)-3-methylbutanoyl)-2-pyrrolidinyl)-1H-imidazol-4-yl)-4-biphenylyl)-1H-imidazol-2-yl)-1-pyrrolidinyl)carbonyl)-2-methylpropyl)carbamate] | 9.00 to 12.00
CC(C)OC(=O)N[C@H](C(=O)N1CCC[C@H]1c1nc(-c2ccc(-c3ccc(-c4c[nH]c([C@@H]5CCCN5C(=O)[C@@H](NC(=O)OC(C)C)C(C)C)n4)cc3)cc2)c[nH]1)C(C)C [Example F26, isopropyl ((1S)-1-(((2S)-2-(4-(4′-(2-((2S)-1-((2S)-2-((isopropoxycarbonyl)amino)-3-methylbutanoyl)-2-pyrrolidinyl)-1H-imidazol-4-yl)-4-biphenylyl)-1H-imidazol-2-yl)-1-pyrrolidinyl)carbonyl)-2-methylpropyl)carbamate] | 7.00 to 9.00
C[C@H](O)C(=O)N1CCC[C@H]1c1nc(-c2ccc(-c3ccc(-c4cnc([C@@H]5CCCN5C(=O)[C@H](C)O)[nH]4)cc3)cc2)c[nH]1 [Example F27, (2S)-1-((2S)-2-(4-(4′-(2-((2S)-1-((2S)-2-hydroxypropanoyl)-2-pyrrolidinyl)-1H-imidazol-5-yl)-4-biphenylyl)-1H-imidazol-2-yl)-1-pyrrolidinyl)-1-oxo-2-propanol] | 7.00 to 9.00
CC(C)C[C@@H](C(=O)N1CCC[C@H]1c1nc(-c2ccc(-c3ccc(-c4cnc([C@@H]5CCCN5C(=O)[C@H](CC(C)C)N(C)C(=O)OC(C)(C)C)[nH]4)cc3)cc2)c[nH]1)N(C)C(=O)OC(C)(C)C [Example F28, tert-butyl ((1S)-1-(((2S)-2-(5-(4′-(2-((2S)-1-((2S)-2-((tert-butoxycarbonyl)(methyl)amino)-4-methylpentanoyl)-2-pyrrolidinyl)-1H-imidazol-4-yl)-4-biphenylyl)-1H-imidazol-2-yl)-1-pyrrolidinyl)carbonyl)-3-methylbutyl)methylcarbamate] | 7.00 to 9.00
CCC(C)[C@@H](C(=O)N1CCC[C@H]1c1nc(-c2ccc(-c3ccc(-c4cnc([C@@H]5CCCN5C(=O)[C@H](C(C)CC)N(C)C(=O)OC(C)(C)C)[nH]4)cc3)cc2)c[nH]1)N(C)C(=O)OC(C)(C)C (stereo partly drawn) [Example F29, tert-butyl ((1S)-1-(((2S)-2-(5-(4′-(2-((2S)-1-((2S)-2-((tert-butoxycarbonyl)(methyl)amino)-3-methylpentanoyl)-2-pyrrolidinyl)-1H-imidazol-4-yl)-4-biphenylyl)-1H-imidazol-2-yl)-1-pyrrolidinyl)carbonyl)-2-methylbutyl)methylcarbamate] | 7.00 to 9.00
CC(C)[C@@H](C(=O)N1CCC[C@H]1c1nc(-c2ccc(-c3ccc(-c4cnc([C@@H]5CCCN5C(=O)[C@H](C(C)C)N(C)C(=O)OC(C)(C)C)[nH]4)cc3)cc2)c[nH]1)N(C)C(=O)OC(C)(C)C [Example F30, tert-butyl ((1S)-1-(((2S)-2-(5-(4′-(2-((2S)-1-((2S)-2-((tert-butoxycarbonyl)(methyl)amino)-3-methylbutanoyl)-2-pyrrolidinyl)-1H-imidazol-4-yl)-4-biphenylyl)-1H-imidazol-2-yl)-1-pyrrolidinyl)carbonyl)-2-methylpropyl)methylcarbamate] | 7.00 to 9.00
CN[C@@H](CC(C)C)C(=O)N1CCC[C@H]1c1nc(-c2ccc(-c3ccc(-c4cnc([C@@H]5CCCN5C(=O)[C@H](CC(C)C)NC)[nH]4)cc3)cc2)c[nH]1 [Example F32, (2S)-N,4-dimethyl-1-((2S)-2-(4-(4′-(2-((2S)-1-((2S)-4-methyl-2-(methylamino)pentanoyl)-2-pyrrolidinyl)-1H-imidazol-5-yl)-4-biphenylyl)-1H-imidazol-2-yl)-1-pyrrolidinyl)-1-oxo-2-pentanamine] | 6.00 to 7.00
